Fold induction data for 24 compounds are collected here from patent US12570988B2, “Aptamers that bind thiamine analogs and derivatives” (MeiraGTx Gene Regulation Limited, priority 2020, dated 2026).

In experiment [1] the test system is riboswitch 15D10. Description: Luciferase reporter with 15D10 riboswitch (Luci-15D10) in HEK 293 cells. The conditions noted are these: Homo sapiens, HEK293, 24 h, 50 μM, HEK 293 cells, read-out: Fold increase in riboswitch 15D10-regulated luciferase expression, HEK. The experiment is classed as cell-based, human. The gist of the method: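 Cells transfected with riboswitch-luciferase plasmid; 4 h later medium replaced with TPP or thiamine analogs (fursultiamine, prosultiamine, bisbentiamine, beclotiamine, sulbutiamine) as inducers.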
For orientation: A reporter such as luciferase makes a cellular process visible.

Experiment [2] concerns riboswitch 15D10. Description: Luciferase reporter with 15D10 riboswitch (Luci-15D10) in AML12 cells. The class given is cell-based, mouse. The conditions noted are these: Mus musculus, AML12, 24 h, 50 μM, AML12 cells, read-out: Fold increase in riboswitch 15D10-regulated luciferase expression, AML.

As for `C/C(=C(\CCO)SC(=O)c1ccccc1Oc1ccccc1)N(C=O)Cc1cnc(C)nc1N` [Compound M113, (Z)—S-(2-(N-((4-amino-2-methylpyrimidin-5-yl)methyl)formamido)-5-hydroxypent-2-en-3-yl) 2-phenoxybenzothioate], the fold induction at 50 µM in experiment [1] (Table 2) amounted to 213; in experiment [1] (Table 3), 265; in experiment [2] (Table 2) it was 272; in experiment [2] (Table 3), 348.

For the compound `C/C(=C(\CCO)SC(=O)c1ccc(C(C)(C)C)cc1)N(C=O)Cc1cnc(C)nc1N` [Compound M114, (Z)—S-(2-(N-((4-amino-2-methylpyrimidin-5-yl)methyl)formamido)-5-hydroxypent-2-en-3-yl) 4-(tert-butyl)benzothioate], the fold induction at 50 µM in experiment [1] (Table 2) amounted to 50.1; in experiment [2] (Table 2), 88.8.

For `CCOc1cc(C(C)(C)C)ccc1C(=O)S/C(CCO)=C(/C)N(C=O)Cc1cnc(C)nc1N` [Compound M115, (Z)—S-(2-(N-((4-amino-2-methylpyrimidin-5-yl)methyl)formamido)-5-hydroxypent-2-en-3-yl) 4-(tert-butyl)-2-ethoxybenzothioate], the results for the fold induction at 50 µM in experiment [1] (Table 2) and in experiment [2] (Table 2) were 19.9 and 52.1, respectively.

`C/C(=C(\CCO)SC(=O)c1c(F)cccc1Oc1ccccc1)N(C=O)Cc1cnc(C)nc1N` [Compound M126, (Z)—S-(2-(N-((4-amino-2-methylpyrimidin-5-yl)methyl)formamido)-5-hydroxypent-2-en-3-yl) 2-fluoro-6-phenoxybenzothioate]: the fold induction at 50 µM in experiment [1] (Table 3) stood at 147; in experiment [2] (Table 3), 305.

In the case of `C/C(=C(\CCO)SC(=O)c1c(Cl)cccc1Oc1ccccc1)N(C=O)Cc1cnc(C)nc1N` [Compound M127, (Z)—S-(2-(N-((4-amino-2-methylpyrimidin-5-yl)methyl)formamido)-5-hydroxypent-2-en-3-yl) 2-chloro-6-phenoxybenzothioate], the fold induction at 50 µM in experiment [1] (Table 3) was determined as 0.46; in experiment [2] (Table 3), 7.39.

Take `C/C(=C(\CCO)SC(=O)c1c(C)cccc1Oc1ccccc1)N(C=O)Cc1cnc(C)nc1N` [Compound M128, (Z)—S-(2-(N-((4-amino-2-methylpyrimidin-5-yl)methyl)formamido)-5-hydroxypent-2-en-3-yl) 2-methyl-6-phenoxybenzothioate]: the figures for the fold induction at 50 µM in experiment [1] (Table 3) and in experiment [2] (Table 3) were 0.56 and 7.87, respectively.

For `C/C(=C(\CCO)SC(=O)c1c(F)cccc1OCc1ccccc1)N(C=O)Cc1cnc(C)nc1N` [Compound M129, (Z)—S-(2-(N-((4-amino-2-methylpyrimidin-5-yl)methyl)formamido)-5-hydroxypent-2-en-3-yl) 2-(benzyloxy)-6-fluorobenzothioate], the fold induction at 50 µM in experiment [1] (Table 3) is 10.9; in experiment [2] (Table 3), 167.

In the case of `C/C(=C(\CCO)SC(=O)c1c(F)cccc1Oc1cccc(Cl)c1)N(C=O)Cc1cnc(C)nc1N` [Compound M130, (Z)—S-(2-(N-((4-amino-2-methylpyrimidin-5-yl)methyl)formamido)-5-hydroxypent-2-en-3-yl) 2-(3-chlorophenoxy)-6-fluorobenzothioate], the fold induction at 50 µM in experiment [1] (Table 3) was found to be 110; in experiment [2] (Table 3), 329.

Turning to `C/C(=C(\CCO)SC(=O)c1cc(Cl)ccc1Oc1ccccc1)N(C=O)Cc1cnc(C)nc1N` [Compound M131, (Z)—S-(2-(N-((4-amino-2-methylpyrimidin-5-yl)methyl)formamido)-5-hydroxypent-2-en-3-yl) 5-chloro-2-phenoxybenzothioate], the results for the fold induction at 50 µM in experiment [1] (Table 3) and in experiment [2] (Table 3) were 741 and 509, respectively.

For `C/C(=C(\CCO)SC(=O)c1ccc(C)cc1Oc1ccccc1Cl)N(C=O)Cc1cnc(C)nc1N` [Compound M133, (Z)—S-(2-(N-((4-amino-2-methylpyrimidin-5-yl)methyl)formamido)-5-hydroxypent-2-en-3-yl) 2-(2-chlorophenoxy)-4-methylbenzothioate], the results for the fold induction at 50 µM in experiment [1] (Table 3) and in experiment [2] (Table 3) were 100 and 273, respectively.

`C/C(=C(\CCO)SC(=O)c1cc(Cl)ccc1Oc1ccc(F)cc1)N(C=O)Cc1cnc(C)nc1N` [Compound M134, (Z)—S-(2-(N-((4-amino-2-methylpyrimidin-5-yl)methyl)formamido)-5-hydroxypent-2-en-3-yl) 5-chloro-2-(4-fluorophenoxy)benzothioate]: the fold induction at 50 µM in experiment [1] (Table 3) came to 557; in experiment [2] (Table 3) it was 408.

For `C/C(=C(\CCO)SC(=O)c1ccccc1Oc1cccc(C#N)c1)N(C=O)Cc1cnc(C)nc1N` [Compound M135, (Z)—S-(2-(N-((4-amino-2-methylpyrimidin-5-yl)methyl)formamido)-5-hydroxypent-2-en-3-yl) 2-(3-cyanophenoxy)benzothioate], the fold induction at 50 µM in experiment [1] (Table 3) turned out to be 87.5; in experiment [2] (Table 3), 44.5.

As for `C/C(=C(\CCO)SC(=O)c1ccccc1Oc1ccccc1Cl)N(C=O)Cc1cnc(C)nc1N` [Compound M136, (Z)—S-(2-(N-((4-amino-2-methylpyrimidin-5-yl)methyl)formamido)-5-hydroxypent-2-en-3-yl) 2-(2-chlorophenoxy)benzothioate], the fold induction at 50 µM in experiment [1] (Table 3) was 132; in experiment [2] (Table 3), 263.

For the compound `C/C(=C(\CCO)SC(=O)c1ccccc1Oc1ccccc1Br)N(C=O)Cc1cnc(C)nc1N` [Compound M137, (Z)—S-(2-(N-((4-amino-2-methylpyrimidin-5-yl)methyl)formamido)-5-hydroxypent-2-en-3-yl) 2-(2-bromophenoxy)benzothioate], the fold induction at 50 µM in experiment [1] (Table 3) was found to be 140; in experiment [2] (Table 3) it was 288.

For `C/C(=C(\CCO)SC(=O)c1ccccc1Oc1c(Cl)cccc1Cl)N(C=O)Cc1cnc(C)nc1N` [Compound M138, (Z)—S-(2-(N-((4-amino-2-methylpyrimidin-5-yl)methyl)formamido)-5-hydroxypent-2-en-3-yl) 2-(2,6-dichlorophenoxy)benzothioate], the fold induction at 50 µM in experiment [1] (Table 3) is 228; in experiment [2] (Table 3), 195.

Consider `C/C(=C(\CCO)SC(=O)c1ccccc1Oc1cccc(C(C)(C)C)c1)N(C=O)Cc1cnc(C)nc1N` [Compound M139, (Z)—S-(2-(N-((4-amino-2-methylpyrimidin-5-yl)methyl)formamido)-5-hydroxypent-2-en-3-yl) 2-(3-(tert-butyl)phenoxy)benzothioate], for which the fold induction at 50 µM in experiment [1] (Table 3) was determined as 37; in experiment [2] (Table 3) it was 188.

Take `C/C(=C(\CCO)SC(=O)c1ccccc1Oc1ccc2ccccc2c1)N(C=O)Cc1cnc(C)nc1N` [Compound M140, (Z)—S-(2-(N-((4-amino-2-methylpyrimidin-5-yl)methyl)formamido)-5-hydroxypent-2-en-3-yl) 2-(naphthalen-2-yloxy)benzothioate]: the fold induction at 50 µM was determined as 175 in experiment [1] (Table 3) and 192 in experiment [2] (Table 3).

`C/C(=C(\CCO)SC(=O)c1ccccc1Oc1cccc2cccnc12)N(C=O)Cc1cnc(C)nc1N` [Compound M141, (Z)—S-(2-(N-((4-amino-2-methylpyrimidin-5-yl)methyl)formamido)-5-hydroxypent-2-en-3-yl) 2-(quinolin-8-yloxy)benzothioate]: the fold induction at 50 µM amounted to 1.61 in experiment [1] (Table 3) and 3.46 in experiment [2] (Table 3).

Turning to `C/C(=C(\CCO)SC(=O)c1c(F)cccc1Oc1ccccc1Cl)N(C=O)Cc1cnc(C)nc1N` [Compound M142, (Z)—S-(2-(N-((4-amino-2-methylpyrimidin-5-yl)methyl)formamido)-5-hydroxypent-2-en-3-yl) 2-(2-chlorophenoxy)-6-fluorobenzothioate], the fold induction at 50 µM was 85.3 in experiment [1] (Table 3) and 184 in experiment [2] (Table 3).

For `CCOc1ccc(C(=O)S/C(CCO)=C(/C)N(C=O)Cc2cnc(C)nc2N)c(Oc2cccc(F)c2)c1` [Compound M143, (Z)—S-(2-(N-((4-amino-2-methylpyrimidin-5-yl)methyl)formamido)-5-hydroxypent-2-en-3-yl) 4-ethoxy-2-(3-fluorophenoxy)benzothioate], the fold induction at 50 µM in experiment [1] (Table 3) came to 138; in experiment [2] (Table 3) it was 300.

`C/C(=C(\CCO)SC(=O)c1ccc(C(C)(C)C)cc1Oc1ccccc1)N(C=O)Cc1cnc(C)nc1N` [Compound M145, (Z)—S-(2-(N-((4-amino-2-methylpyrimidin-5-yl)methyl)formamido)-5-hydroxypent-2-en-3-yl) 4-(tert-butyl)-2-phenoxybenzothioate]: the fold induction at 50 µM stood at 156 in experiment [1] (Table 3) and 60.6 in experiment [2] (Table 3).

Regarding `C/C(=C(\CCO)SC(=O)c1ccccc1Oc1ccc(C(F)(F)F)nc1)N(C=O)Cc1cnc(C)nc1N` [Compound M146, (Z)—S-(2-(N-((4-amino-2-methylpyrimidin-5-yl)methyl)formamido)-5-hydroxypent-2-en-3-yl) 2-((6-(trifluoromethyl)pyridin-3-yl)oxy)benzothioate], the fold induction at 50 µM in experiment [1] (Table 3) was found to be 53.3; in experiment [2] (Table 3), 96.6.

As for `C/C(=C(\CCO)SC(=O)c1ccccc1Oc1ccc2c(c1)OCCO2)N(C=O)Cc1cnc(C)nc1N` [Compound M147, (Z)—S-(2-(N-((4-amino-2-methylpyrimidin-5-yl)methyl)formamido)-5-hydroxypent-2-en-3-yl) 2-((2,3-dihydrobenzo[b][1,4]dioxin-6-yl)oxy)benzothioate], the values for the fold induction at 50 µM in experiment [1] (Table 3) and in experiment [2] (Table 3) were 193 and 267, respectively.

As to `C/C(=C(\CCO)SC(=O)c1cccc2c1oc1ccccc12)N(C=O)Cc1cnc(C)nc1N` [Compound M148, (Z)—S-(2-(N-((4-amino-2-methylpyrimidin-5-yl)methyl)formamido)-5-hydroxypent-2-en-3-yl) dibenzo[b,d]furan-4-carbothioate], the fold induction at 50 µM in experiment [1] (Table 3) was found to be 153; in experiment [2] (Table 3), 288.
